Results taken from the supplement of paper PMC4862054.

Columns and labels:
Conditions in all cases: incubation time: 72 h
HCC1143 [1] = assay: drug sensitivity score (DSS), CellTiter-Blue viability (DSS (AUC-based score)); higher = stronger viability inhibition; extreme values may be limits of the assay
Procedure: (§1)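 DSRT with the CellTiter-Blue (resazurin reduction) viability readout, fluorescence 560/590 nm, 72 h incubation. Plates were normalised to DMSO and benzethonium chloride controls. DSS is computed from the area under the fitted dose-response curve (5 or 9 concentrations).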

MFM-223 [2] = assay: as above
Procedure: as §1

SK-BR-3 [3] = assay: as above
Procedure: as §1

BT-474 = assay: as above
Procedure: as §1

HCC1599 [4] = assay: as above
Procedure: as §1

CAL-85-1 [5] = assay: as above
Procedure: as §1

MDA-MB-436 [6] = assay: as above
Procedure: as §1

MDA-MB-231 [7] = assay: as above
Procedure: as §1

HDQ-P1 [8] = assay: as above
Procedure: as §1

HCC1143 [9] = assay: normalised viability (% of control), CellTiter-Blue; higher = more viable cells (about 100 = DMSO control)
How it was run: (§2)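 The reported figure is normalised viability at a single listed concentration of the series. Breast cancer cell lines (20 µl suspension) went onto 384-well plates holding compound in 5 µl medium for 72 h. CellTiter-Blue (2.5 µl, 2 h, 37 °C) was read by fluorescence at 560/590 nm, and each plate was scaled to vehicle at 100 and a positive kill control at 0.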

MFM-223 [10] = assay: as above
How it was run: as §2

SK-BR-3 [11] = assay: as above
How it was run: as §2

CAL-148 = assay: as above
How it was run: as §2

HCC1599 [12] = assay: as above
How it was run: as §2

BT-549 = assay: as above
How it was run: as §2

CAL-85-1 [13] = assay: as above
How it was run: as §2

MDA-MB-436 [14] = assay: as above
How it was run: as §2

CAL-120 = assay: as above
How it was run: as §2

HCC1937 = assay: as above
How it was run: as §2

MDA-MB-468 = assay: as above
How it was run: as §2

MDA-MB-231 [15] = assay: as above
How it was run: as §2

HDQ-P1 [16] = assay: as above
How it was run: as §2

DU-4475 = assay: as above
How it was run: as §2

MDA-MB-453 = assay: as above
How it was run: as §2

CC/C(=C(\c1ccccc1)c1ccc(OCCN(C)C)cc1)c1ccccc1 [Tamoxifen]
Conditions	drug sensitivity score
BT-474	0
CAL-85-1 [5]	0
HCC1143 [1]	0
HCC1599 [4]	0
HDQ-P1 [8]	0
MDA-MB-231 [7]	0
MDA-MB-436 [6]	2.35
MFM-223 [2]	0
SK-BR-3 [3]	0

normalised viability [%]
Conditions	3 nM	10 nM	30 nM	100 nM	1000 nM	10000 nM
BT-549	–	83.3	–	–	82.8	56.5
CAL-85-1 [13]	100	–	92	116	–	–
CAL-120	–	110	–	–	100	82.1
CAL-148	111	–	105	127	–	–
DU-4475	99.9	–	95.7	110	–	–
HCC1143 [9]	–	113	–	–	110	120
HCC1599 [12]	–	102	–	–	107	90
HCC1937	–	83.4	–	–	83.1	98.6
HDQ-P1 [16]	109	–	100	110	–	–
MDA-MB-231 [15]	–	93.1	–	–	94.6	115
MDA-MB-436 [14]	–	101	–	–	94.7	40.1
MDA-MB-453	98.4	–	85.2	103	–	–
MDA-MB-468	–	100	–	–	106	9.44
MFM-223 [10]	–	89	–	–	87.7	54.1
SK-BR-3 [11]	–	101	–	–	107	80.9

Nc1nc(Cl)nc2c1ncn2[C@@H]1O[C@H](CO)[C@@H](O)[C@@H]1F [Clofarabine]
Conditions	drug sensitivity score
BT-474	0
CAL-85-1 [5]	10.1
HCC1143 [1]	9.25
HCC1599 [4]	2.01
HDQ-P1 [8]	0
MDA-MB-231 [7]	12
MDA-MB-436 [6]	11.8
MFM-223 [2]	0
SK-BR-3 [3]	15.3

normalised viability [%]
Conditions	3 nM	10 nM	30 nM	100 nM	1000 nM	10000 nM
BT-549	–	87.5	–	–	50.6	42.3
CAL-85-1 [13]	95.8	–	90.4	82.6	–	–
CAL-120	–	89.1	–	–	47.7	50.4
CAL-148	82.6	–	87.8	83.3	–	–
DU-4475	90.6	–	92.8	94.4	–	–
HCC1143 [9]	–	74.5	–	–	52.4	45
HCC1599 [12]	–	106	–	–	87.5	71.6
HCC1937	–	92.6	–	–	28.9	26.9
HDQ-P1 [16]	105	–	106	88.9	–	–
MDA-MB-231 [15]	–	89.1	–	–	64.4	57.8
MDA-MB-436 [14]	–	109	–	–	47.6	56
MDA-MB-453	102	–	105	97.9	–	–
MDA-MB-468	–	98.5	–	–	39.5	20.5
MFM-223 [10]	–	92.6	–	–	85.3	86.2
SK-BR-3 [11]	–	93	–	–	41.9	35.6
